ChEMBL document CHEMBL1153714, “Isolation and characterization of tirandamycins from a marine-derived Streptomyces sp” (2009)
In brackets after ≈: the same amount, converted by molar mass.

What follows are compounds tested on Enterococcus faecalis (assay: Antibacterial activity against vancomycin-resistant Enterococcus faecalis after 16 hrs by microtiter plate assay).
Format: functional
Compound `CC(/C=C/C(O)=C1/C(=O)CNC1=O)=C\[C@@H](C)[C@H]1O[C@@]2(C)O[C@H](C(=O)[C@H]3O[C@]32C)[C@@H]1C` [TIRANDAMYCIN A] has an MIC of 2.25 µM (≈ 0.939 µg/mL). Compound `CC(/C=C/C(O)=C1/C(=O)CNC1=O)=C\[C@@H](C)[C@H]1O[C@@]2(C)O[C@H](C(=O)[C@H]3O[C@]32CO)[C@@H]1C` [TIRANDAMYCIN B] has an MIC of 100 µM (≈ 43.3 µg/mL). Work on `CC1=CC[C@H]2O[C@]1(C)O[C@H]([C@H](C)/C=C(C)/C=C/C(O)=C1/C(=O)CNC1=O)[C@H]2C` [TIRANDAMYCIN C] yielded an MIC of 110 µM (≈ 42.6 µg/mL). `CC1=CC(=O)[C@H]2O[C@]1(C)O[C@H]([C@H](C)/C=C(C)/C=C/C(O)=C1/C(=O)CNC1=O)[C@H]2C` [TIRANDAMYCIN D] gave an MIC of over 9 µM.
